In patent US20020161002A1, “Use of catecholamine reuptake inhibitors to enhance memory” (priority 2001, published 2002):

How the values were obtained:
rats = assay: Activity level tests (10 minute session); settings: 0.5 mg/kg; 10 minute period one hour after injection; FIGS. 16-21
IA memory in the rat = assay: Inhibitory Avoidance (IA) task, normal rats; format: in vivo; settings: for performance on the IA task, normal rats: one hour before, p<0.05 relative to all other groups; for long-term retention of the IA task: second retention test one week after the first, no additional training or drug
Description: An exemplary passive avoidance test utilizes an apparatus that consists of a lit chamber that can be separated from a dark chamber by a sliding door. At training, the animal is placed in the lit chamber for some period of time, and the door is opened. The animal moves to the dark chamber after a short delay—the latency—that is recorded. Upon entry into the dark chamber, the door is shut closed and a foot shock is delivered.
The Inhibitory Avoidance (IA) task is a well-studied behavioral paradigm which can provide the researcher with a consistent and long-lasting measure of memory. The paradigm consists of one training trial and one retention trial. Test articles may be administered to the rats either before or after training. […] The objective of the following experiments was to investigate the effects of methylphenidate on IA memory in the rat.

fornix lesion rats = assay: Inhibitory Avoidance (IA) task, rats with lesions of the fornix (amnesic rats); format: in vivo, rat; settings: one hour before; for performance of treated fornix animals compared with normal, saline injected animals: Student-Newman-Keuls post hoc test
Excerpt: Animal models for studying fornix-mediated memory consolidation have previously been described. See, for example, Taubenfield et al., Supra. The fornix-lesioned animals can be used for drug screening, e.g., to identify dosages of the subject reuptake inhibitors which enhance memory consolidation. The lesioned mammal can have a lesion of the fornix or a related brain structure that disrupts memory consolidation (e.g., perirhinal cortex, amygdala, medial septal nucleus, locus coeruleus, hippocampus, mammallary bodies). Lesions in the mammal can be produced by mechanical or chemical disruption. For example, the fornix lesion can be caused by surgical ablation, electrolytic, neurotoxic and other chemical ablation techniques, or reversible inactivation such as by injection of an anesthetic, e.g., tetrodotoxin or lidocaine, to temporarily arrest activity in the fornix.
In one embodiment, the animal can be a rat. Briefly, the animals are anesthetized, e.g., with intraperitoneal injections of a ketamine-xylazine mixture and positioned in a Kopf stereotaxic instrument. A sagittal incision is made in the scalp and a craniotomy is performed extending 2.0 mm posterior and 3.0 mm lateral from Bregma. An aspirative device, e.g., with a 20 gauge tip, is mounted to a stereotaxic frame (Kopf Instruments) and fimbria-fornix is aspirated by placing the suction tip at the correct sterotaxic location in the animals brain. Unilateral aspirative lesions are made by suction through the cingulate cortex, completely transecting the fimbria fornix unilaterally, and (optionally) removing the dorsal tip of the hippocampus as well as the overlying cingulate cortex to inflict a partial denervation on the hippocampus target. See also, Gage et al., (1983) Brain Res. 268:27 and Gage et al. (1986) Neuroscience 19:241.
The Inhibitory Avoidance (IA) task is a well-studied behavioral paradigm which can provide the researcher with a consistent and long-lasting measure of memory. The paradigm consists of one training trial and one retention trial. Test articles may be administered to the rats either before or after training. Improved memory, as a result of test compound administration, is evident as increased latency on the retention trial. The objective of the following experiments was to investigate the effects of methylphenidate on IA memory in the rat.
In the next experiment, we investigated whether the performance of amnesic rats could be improved by administration of methylphenidate. In this experiment, control rats and rats with lesions of the fornix received injections of either saline or methylphenidate (5 mg/kg), and one hour later, were tested on the IA task.
In the next experiment, we investigated whether the performance of amnesic rats could be improved by administration of amphetamine. […]

C[C@@H](N)Cc1ccccc1 [R-(−)amphetamine]
activity levels (distance, movements, movement time, rears, stereotyped movements, resting time) versus saline control (rats): no significant effects on the activity levels
retention of the IA task (second, verifying experiment) (IA memory in the rat; 0.5 mg/kg one hour prior to training, 24 hour retention interval, 0.46 mA shock, unpaired t-test p<0.002, FIG. 15): significantly improved retention of the task
dose required for improved retention of the IA task, compared with S-(+)amphetamine (IA memory in the rat; 0.5, 1.0, 2.0 or 4.0 mg/kg one hour prior to training, 24 hour retention interval, 0.46 mA shock, FIG. 14): a much lower dose of R-(−)amphetamine is required for the same improved retention effect
retention of the IA task at doses above 0.5 mg/kg (IA memory in the rat; 1.0, 2.0 or 4.0 mg/kg versus 0.5 mg/kg, one hour prior to training, 24 hour retention interval, FIG. 14): did not further improve the retention results

C[C@H](N)Cc1ccccc1 [S-(+)amphetamine]
retention of the IA task (IA memory in the rat; 2 mg/kg (200 standard units) one hour prior to training, 24 hour retention interval, 0.46 mA shock, FIG. 9): improved retention of the task
retention of the IA task (IA memory in the rat; 25 standard units/kg, injected thirty minutes prior to training, FIG. 4): no effect
retention of the IA task (IA memory in the rat; 50 standard units/kg, injected thirty minutes prior to training, FIG. 4): no effect
retention of the IA task (IA memory in the rat; 100 standard units/kg, injected thirty minutes prior to training, FIG. 4): no effect
retention of the IA task (IA memory in the rat; 200 standard units, injected thirty minutes prior to training, FIG. 4): improved retention of the task
performance on the IA task, normal rats (IA memory in the rat; 200 standard units/kg, FIG. 8): dramatically enhanced the performance of normal rats
retention of the IA task (second, verifying experiment) (IA memory in the rat; 200 standard units/kg, unpaired t-test p<0.01, FIG. 5): significantly improved retention of the task
long-term retention of the IA task (IA memory in the rat; F(4,47)=3.688, p<0.01, FIG. 7): performed significantly better than rats that had received control injections of vehicle solution
performance on the IA task, fornix lesion rats (fornix lesion rats; 200 standard units/kg, FIG. 8): appeared to improve the performance of the fornix lesion rats
performance of treated fornix animals compared with normal, saline injected animals (fornix lesion rats; 200 standard units/kg): not significantly different from normal, saline injected animals

COC(=O)C(c1ccccc1)C1CCCCN1 (centres unmarked) [methylphenidate]
performance on the IA task, normal rats (IA memory in the rat; 5 mg/kg, FIG. 3): dramatically enhanced the performance of normal rats
retention of the IA task (IA memory in the rat; 50 standard units/kg, injected thirty minutes prior to training, FIG. 1): improved retention
optimal pre-training drug administration time (IA memory in the rat; 50 standard units/kg, time of administration varied): most effective when administered to the rats one hour prior to training
retention of the IA task (second, verifying experiment) (IA memory in the rat; 50 standard units/kg, unpaired t-test p<0.03, FIG. 2): significantly improved retention of the task
retention of the IA task (IA memory in the rat; 100 standard units/kg, injected thirty minutes prior to training, FIG. 1): no effect
retention of the IA task (IA memory in the rat; 150 standard units/kg, injected thirty minutes prior to training, FIG. 1): no effect
long-term retention of the IA task (IA memory in the rat): this improvement is long lasting
performance on the IA task, fornix lesion rats (fornix lesion rats; 5 mg/kg, FIG. 3): appeared to improve the performance of the fornix lesion rats
performance of treated fornix animals compared with normal, saline injected animals (fornix lesion rats; 5 mg/kg): not significantly different from normal, saline injected animals
